Consider 20 compounds from patent US20110224193A1, “INHIBITORS OF DIACYLGLYCEROL ACYLTRANSFERASE” (MERCK SHARP & DOHME CORP, priority 2008, published 2011).

The assay addresses T1, human DGAT1 enzyme (Homo sapiens, UniProt O75907).
T1 construct: made in house; host or cells: Sf9 insect cells (microsomes)
T1 sequence (O75907 1-488): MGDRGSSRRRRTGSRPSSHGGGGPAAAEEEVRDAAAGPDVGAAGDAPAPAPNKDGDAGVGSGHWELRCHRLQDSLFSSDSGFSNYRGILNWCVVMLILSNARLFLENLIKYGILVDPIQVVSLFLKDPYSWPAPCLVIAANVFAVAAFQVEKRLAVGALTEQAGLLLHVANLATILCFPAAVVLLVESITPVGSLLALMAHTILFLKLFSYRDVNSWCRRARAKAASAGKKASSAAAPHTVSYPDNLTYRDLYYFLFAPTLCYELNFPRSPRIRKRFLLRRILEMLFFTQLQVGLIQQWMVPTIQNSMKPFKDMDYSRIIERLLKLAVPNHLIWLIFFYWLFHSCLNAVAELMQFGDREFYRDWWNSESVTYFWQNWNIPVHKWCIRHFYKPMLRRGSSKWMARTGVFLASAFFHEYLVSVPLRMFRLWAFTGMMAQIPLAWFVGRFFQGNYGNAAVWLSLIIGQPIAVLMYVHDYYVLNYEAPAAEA
The assay can be described thus: in vitro DGAT1 inhibition assay (microsomes, [14C]-palmitoyl-CoA, SPA beads). In kind it is biochemical. The following applies: human DGAT1 expressed in Sf9 insect cell microsomes, 2 hours at room temperature; read-out: hDGAT IC50. Here is the method:
A useful assay to determine the DGAT inhibitory activity of the inventive compounds is described below:
The in vitro assay to identify DGAT1 inhibitors uses human DGAT1 enzyme expressed in Sf9 insect cells prepared as microsomes. The reaction is initiated by the addition of the combined substrates 1,2-dioleoyl-sn-glycerol and [^14C]-palmitoyl-Co A and incubated with test compounds and microsomal membranes for 2 hours at room temperature. The assay is stopped by adding 0.5 mg wheat germ agglutinin beads in assay buffer with 1% Brij-35 and 1% 3-cholamidopropyldimethyl-ammonio-1-propane sulfonate. Plates are sealed with TopSeal and incubated for 18 hours to allow the radioactive triglyceride product to come into proximity with the bead. Plates are read on a TopCount instrument.
Percent inhibition was calculated as the percent of (test compound inhibition minus non-specific binding) relative to (total binding minus non-specific binding). IC50 values were determined by curve fitting the data to a Sigmoidal dose-response in GraphPad Prism utilizing the following equation:
Y=A+(B−A)/(1+10̂((Log IC50−X))),
where A and B are the bottom and top of the curve (highest and lowest inhibition), respectively, and X is the logarithm of concentration.

One may read the IC50 as the concentration at which inhibition is half-maximal. Take `O=C(Nc1ccc(N2CCN(Cc3ccccc3)C(=O)C2)nc1)c1oc(-c2ccccc2)nc1C(F)(F)F` [Compound 62]: the IC50 was in the range of 11 to 100 nM.
For the compound `O=C(Nc1ccc(N2CCC(n3c(=O)[nH]c4ccccc43)CC2)nc1)c1oc(-c2ccccc2)nc1C(F)(F)F` [Compound 72], the half-inhibitory concentration (IC50) is 101 to 500 nM.
For the compound `O=C(Nc1ccc(N2CCC(O)(c3ccccc3)CC2)nc1)c1oc(-c2ccccc2)nc1C(F)(F)F` [Compound 78], the IC50 lay in the range of 101 to 500 nM.
As to `O=C(Nc1ccc(N2CCC(O)(c3ccccc3)CC2)nc1)c1nc(-c2ccccc2)oc1C(F)(F)F` [Compound 82], the concentration for half-maximal inhibition (IC50) was 101 to 500 nM.
Turning to `O=C(Nc1ccc(N2CCC(CCc3ccccc3)CC2)nc1)c1oc(-c2ccccc2)nc1C(F)(F)F` [Compound 151], the IC50 lay in the range of 101 to 500 nM.
Regarding `O=C(Nc1ccc(N2CCC(OCc3ccccc3)CC2)nc1)c1oc(-c2ccccc2)nc1C(F)(F)F` [Compound 153], the IC50 was in the range of 11 to 100 nM.
`O=C(Nc1ccc(N2CCC(C(O)c3ccccc3)CC2)nc1)c1oc(-c2ccccc2)nc1C(F)(F)F` (centres unmarked) [Compound 155]: the half-inhibitory concentration (IC50) is 11 to 100 nM.
For the compound `O=C(Nc1ccc(N2CCC(=O)N(Cc3ccccc3)CC2)nc1)c1oc(-c2ccccc2)nc1C(F)(F)F` [Compound 157], the IC50 was 101 to 500 nM.
As to `O=C(Nc1ccc(N2CCN(C(=O)C(O)C(F)(F)F)CC2)nc1)c1oc(-c2ccccc2)nc1C(F)(F)F` (centres unmarked) [Compound 164], the concentration for half-maximal inhibition (IC50) fell in the range of 11 to 100 nM.
Then `O=C(Nc1ccc(N2CCN(C(=O)[C@H](O)c3ccccc3)CC2)nc1)c1oc(-c2ccccc2)nc1C(F)(F)F` [Compound 165], with 11 to 100 nM.
As for `O=C(Nc1ccc(N2CCN(C(=O)C(O)c3ccc(Cl)cc3)CC2)nc1)c1oc(-c2ccccc2)nc1C(F)(F)F` (centres unmarked) [Compound 168], the IC50 was in the range of 11 to 100 nM.
With `O=C(Nc1ccc(N2CCN(C(=O)[C@H](O)C3CCCCC3)CC2)nc1)c1oc(-c2ccccc2)nc1C(F)(F)F` [Compound 169], the IC50 lay within 11 to 100 nM.
On to `O=C(Nc1ccc(N2CCN(C(=O)[C@@H](O)C3CCCCC3)CC2)nc1)c1oc(-c2ccccc2)nc1C(F)(F)F` [Compound 170], for which the IC50 is 11 to 100 nM.
The value for `O=C(Nc1ccc(N2CCN(C(=O)C(O)Cc3ccccc3)CC2)nc1)c1oc(-c2ccccc2)nc1C(F)(F)F` (centres unmarked) [Compound 171] was 11 to 100 nM; that for `O=C(O)CC(O)(C(=O)N1CCN(c2ccc(NC(=O)c3oc(-c4ccccc4)nc3C(F)(F)F)cn2)CC1)C(F)(F)F` (centres unmarked) [Compound 172] was 11 to 100 nM.
Take `O=C(Nc1ccc(N2CCN(C(=O)C(O)c3ccc4c(c3)OCO4)CC2)nc1)c1oc(-c2ccccc2)nc1C(F)(F)F` (centres unmarked) [Compound 176]: the IC50 lay in the range of 11 to 100 nM.
On to `O=C(Nc1ccc(N2CCCN(C(=O)[C@H](O)c3ccccc3)CC2)nc1)c1oc(-c2ccccc2)nc1C(F)(F)F` [Compound 179], for which the 50% inhibitory concentration (IC50) lay in the range of 11 to 100 nM.
With `O=C(Nc1ccc(N2CCCN(C(=O)[C@H](O)C3CCCCC3)CC2)nc1)c1oc(-c2ccccc2)nc1C(F)(F)F` [Compound 180], the IC50 fell in the range of 11 to 100 nM.
Turning to `O=C(Nc1ccc(N2CCCN(C(=O)C(O)C(F)(F)F)CC2)nc1)c1oc(-c2ccccc2)nc1C(F)(F)F` (centres unmarked) [Compound 181], the IC50 lay in the range of 11 to 100 nM.
For `O=C(Nc1ccc(N2CCCN(C(=O)[C@H](O)c3ccc(F)c(F)c3)CC2)nc1)c1oc(-c2ccccc2)nc1C(F)(F)F` [Compound 182], the IC50 lay within 11 to 100 nM.
